Experimental data published in patent US4748187A, “Opioid peptide-degrading enzyme inhibitor with a germanium compound” (Asai Germanium Research Institute, priority 1983, dated 1988).

Legend:
Format in all cases: biochemical
aminopeptidase [1] = test: Inhibition of aminopeptidase of human cerebrospinal fluid (substrate enkephalin); conditions: for IC50: aminopeptidase eluted from human cerebrospinal fluid, substrate enkephalin; for inhibition effect on aminopeptidase: dialyzed human cerebrospinal fluid, 2 mg/ml
Description: (§1) A human cerebrospinal fluid was dialyzed by using 25 mM of tris-HCl buffer having a pH of 7.0 for 5 hrs. Enkephalin-degrading enzymes contained therein were analyzed according to a radioautography or the like. In the cerebrospinal fluid, the aminopeptidase activity was the strongest. Further, dipeptidylaminopeptidase and dipeptidylcarboxypeptidase activites which were non-selective for bestatin were also recognized.
(§2) The compound (3) and (6) of the present invention were allowed to act on the respective enzymes.
On the other hand, the aminopeptidase alone was eluted according to the cellulose column chromatography using a NaCl solution as a eluant. IC50 values of the above two compounds on the aminopeptidase were determined according to Porapak Q column process and high-performance liquid chromatography using enkephalin as the substrate. The results were compared with those of Arphamenin A and B the inhibitive actions of which on the enkephalin-degrading enzyme have been known.

Aminopeptidase [2] = test: Inhibition of aminopeptidase from monkey brain (substrate enkephalin)
Dipeptidylaminopeptidase [3] = test: Inhibition of dipeptidylaminopeptidase from monkey brain (substrate enkephalin)
[4] = target: T1, angiotensin converting enzyme (Rattus norvegicus, UniProt P47820); test: Inhibition of angiotensin converting enzyme from rat lung; conditions: substrate Hip--His--L-Lue
T1 construct: lung; from tissue; host or cells: rat lung
T1 sequence (P47820 36-1313): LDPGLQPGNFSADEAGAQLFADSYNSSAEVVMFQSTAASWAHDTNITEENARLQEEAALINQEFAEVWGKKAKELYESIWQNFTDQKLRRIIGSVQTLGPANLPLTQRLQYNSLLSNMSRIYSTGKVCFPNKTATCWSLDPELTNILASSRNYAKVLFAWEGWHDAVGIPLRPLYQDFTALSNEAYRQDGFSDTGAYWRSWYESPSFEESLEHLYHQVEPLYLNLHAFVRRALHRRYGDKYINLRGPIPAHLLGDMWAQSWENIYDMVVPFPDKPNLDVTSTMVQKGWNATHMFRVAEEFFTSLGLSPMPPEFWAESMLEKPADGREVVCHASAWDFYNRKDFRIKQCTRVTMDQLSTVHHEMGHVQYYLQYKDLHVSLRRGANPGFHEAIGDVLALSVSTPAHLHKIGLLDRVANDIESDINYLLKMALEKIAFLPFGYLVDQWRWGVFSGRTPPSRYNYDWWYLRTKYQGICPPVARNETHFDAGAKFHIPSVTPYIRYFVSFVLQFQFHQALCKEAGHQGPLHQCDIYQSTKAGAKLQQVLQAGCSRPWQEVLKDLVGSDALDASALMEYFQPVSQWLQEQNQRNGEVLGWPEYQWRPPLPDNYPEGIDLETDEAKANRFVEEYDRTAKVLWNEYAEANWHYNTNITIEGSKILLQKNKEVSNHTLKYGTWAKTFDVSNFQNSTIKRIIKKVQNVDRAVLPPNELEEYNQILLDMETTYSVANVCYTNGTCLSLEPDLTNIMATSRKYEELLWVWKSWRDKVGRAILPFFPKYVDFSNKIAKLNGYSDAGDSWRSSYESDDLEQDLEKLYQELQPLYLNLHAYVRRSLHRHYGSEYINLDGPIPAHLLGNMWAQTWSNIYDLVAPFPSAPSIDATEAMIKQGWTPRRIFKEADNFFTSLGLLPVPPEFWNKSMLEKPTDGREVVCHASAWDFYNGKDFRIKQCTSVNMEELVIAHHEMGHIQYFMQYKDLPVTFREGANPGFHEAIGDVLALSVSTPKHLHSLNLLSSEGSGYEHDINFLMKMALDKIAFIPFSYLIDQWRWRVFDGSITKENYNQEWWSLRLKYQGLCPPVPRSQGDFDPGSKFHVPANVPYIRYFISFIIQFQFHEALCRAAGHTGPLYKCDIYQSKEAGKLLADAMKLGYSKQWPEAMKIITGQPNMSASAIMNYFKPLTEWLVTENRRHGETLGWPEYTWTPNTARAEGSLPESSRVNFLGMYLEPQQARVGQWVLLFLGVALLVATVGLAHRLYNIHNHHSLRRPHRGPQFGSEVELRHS

[5] = target: T2, Dipeptidylcarboxypeptidase (Bos taurus, UniProt P12820); test: Inhibition of dipeptidylcarboxypeptidase from bovine longitudinal muscle (substrate Hip-His-Leu)
T2 construct: derived from bovine longitudinal muscle; from tissue; host or cells: bovine longitudinal muscle, partially purified (Gorenstein and Snyder 1979)
T2 sequence (P12820 29-1306): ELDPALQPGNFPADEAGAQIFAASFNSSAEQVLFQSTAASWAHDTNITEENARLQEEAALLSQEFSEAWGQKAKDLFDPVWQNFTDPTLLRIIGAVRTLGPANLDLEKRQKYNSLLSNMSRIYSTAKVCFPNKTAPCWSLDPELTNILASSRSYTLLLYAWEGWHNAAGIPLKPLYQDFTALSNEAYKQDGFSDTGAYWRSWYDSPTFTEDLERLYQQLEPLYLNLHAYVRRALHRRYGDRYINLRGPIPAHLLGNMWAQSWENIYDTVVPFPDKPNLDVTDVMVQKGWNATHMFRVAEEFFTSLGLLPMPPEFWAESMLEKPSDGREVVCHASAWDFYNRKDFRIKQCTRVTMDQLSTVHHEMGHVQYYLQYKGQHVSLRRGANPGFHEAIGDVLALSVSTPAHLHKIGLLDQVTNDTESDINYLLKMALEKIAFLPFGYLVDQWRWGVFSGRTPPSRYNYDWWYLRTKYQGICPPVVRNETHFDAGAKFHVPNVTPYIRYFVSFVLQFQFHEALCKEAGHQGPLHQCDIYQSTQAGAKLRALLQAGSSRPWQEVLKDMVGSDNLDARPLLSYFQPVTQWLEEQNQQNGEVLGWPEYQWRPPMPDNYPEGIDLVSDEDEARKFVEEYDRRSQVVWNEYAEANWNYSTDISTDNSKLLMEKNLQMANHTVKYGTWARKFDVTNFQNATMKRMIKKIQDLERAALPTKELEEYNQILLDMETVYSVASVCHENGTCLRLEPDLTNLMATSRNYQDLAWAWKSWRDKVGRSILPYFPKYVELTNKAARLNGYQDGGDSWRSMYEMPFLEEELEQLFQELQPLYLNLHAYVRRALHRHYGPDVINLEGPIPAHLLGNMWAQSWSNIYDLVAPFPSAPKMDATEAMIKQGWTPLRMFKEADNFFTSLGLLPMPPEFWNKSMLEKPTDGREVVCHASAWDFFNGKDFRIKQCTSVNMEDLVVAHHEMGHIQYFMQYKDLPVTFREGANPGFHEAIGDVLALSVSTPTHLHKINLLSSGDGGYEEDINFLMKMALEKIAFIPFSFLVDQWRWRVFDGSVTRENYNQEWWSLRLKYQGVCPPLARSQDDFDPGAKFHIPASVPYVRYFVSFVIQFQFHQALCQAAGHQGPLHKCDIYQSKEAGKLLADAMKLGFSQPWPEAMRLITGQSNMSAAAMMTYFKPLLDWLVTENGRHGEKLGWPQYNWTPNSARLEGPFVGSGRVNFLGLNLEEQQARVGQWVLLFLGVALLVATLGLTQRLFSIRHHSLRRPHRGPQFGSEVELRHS
Excerpt: (§3) (1) As described above, the inhibitor of the present invention has a strong effect of inhibiting the action of the opioid peptide-degrading enzyme. […] On the other hand, however, some opioid peptides released in vivo when such narcotic substances are given and opioid peptide-degrading enzymes have been known. Accordingly, the effects of the products of the present invention were judged from inhibition rates realized when the products were allowed to act on the opioid peptide-degrading enzyme in the presence of the opioid peptide in vitro.
(§4) In the tests, the product of the invention was added to an opioid peptide such as enkephalin or its model compound. After an incubation effected for a given time, the inhibition rates of the product against the opioid peptide-degrading enzyme were examined. Various opioid peptides were used.
The opioid peptide-degrading enzymes derived from bovine longitudinal muscle used in the above examples were purified partially by a process of Goreustein and Snyder S. H., ["Life Sci." 25, 2065 (1979)]. The inhibition effects of the compounds of the present invention on the opioid peptide-degrading enzymes were determined by a process of T. Hazato, M. Shimamura, T. Katayama and T. Yamamoto [B.B.R.C. 105, 470-475 (1982)] (for dipeptidylaminopeptidase), a process of M. Shimamura, T. Hazato and T. Katayama [B.B.A., 756, 223-229 (1983)] […]

[6] = target: Angiotensin converting enzyme; test: Inhibition of angiotensin converting enzyme from monkey brain; conditions: substrate Hip--His--L-Lue
Carboxypeptidase [7] = test: Inhibition of carboxypeptidase from bovine longitudinal muscle (substrate Hip-L-PheAla); conditions: for inhibition rate, Carboxypeptidase: principal ingredient 1 μg/1 ml
Excerpt: as §3, §4
(§5) The opioid peptide-degrading enzymes derived from bovine longitudinal muscle used in the above examples were purified partially by a process of Goreustein and Snyder S. H., ["Life Sci." 25, 2065 (1979)]. The inhibition effects of the compounds of the present invention on the opioid peptide-degrading enzymes were determined by a process of T. Hazato, M. Shimamura, T. Katayama and T. Yamamoto [B.B.R.C. 105, 470-475 (1982)] (for dipeptidylaminopeptidase), a process of M. Shimamura, T. Hazato and T. Katayama [B.B.A., 756, 223-229 (1983)] (for aminopeptidase) and analogous processes.

dipeptidylaminopeptidase [8] = target: T3, dipeptidylaminopeptidase (Homo sapiens, UniProt Q9NY33); test: Inhibition of dipeptidylaminopeptidase of human cerebrospinal fluid; conditions: dialyzed human cerebrospinal fluid; 2 mg/ml
T3 construct: A human cerebrospinal fluid was dialyzed; from tissue; host or cells: human cerebrospinal fluid, dialyzed
T3 sequence (Q9NY33 2-737 limits assumed): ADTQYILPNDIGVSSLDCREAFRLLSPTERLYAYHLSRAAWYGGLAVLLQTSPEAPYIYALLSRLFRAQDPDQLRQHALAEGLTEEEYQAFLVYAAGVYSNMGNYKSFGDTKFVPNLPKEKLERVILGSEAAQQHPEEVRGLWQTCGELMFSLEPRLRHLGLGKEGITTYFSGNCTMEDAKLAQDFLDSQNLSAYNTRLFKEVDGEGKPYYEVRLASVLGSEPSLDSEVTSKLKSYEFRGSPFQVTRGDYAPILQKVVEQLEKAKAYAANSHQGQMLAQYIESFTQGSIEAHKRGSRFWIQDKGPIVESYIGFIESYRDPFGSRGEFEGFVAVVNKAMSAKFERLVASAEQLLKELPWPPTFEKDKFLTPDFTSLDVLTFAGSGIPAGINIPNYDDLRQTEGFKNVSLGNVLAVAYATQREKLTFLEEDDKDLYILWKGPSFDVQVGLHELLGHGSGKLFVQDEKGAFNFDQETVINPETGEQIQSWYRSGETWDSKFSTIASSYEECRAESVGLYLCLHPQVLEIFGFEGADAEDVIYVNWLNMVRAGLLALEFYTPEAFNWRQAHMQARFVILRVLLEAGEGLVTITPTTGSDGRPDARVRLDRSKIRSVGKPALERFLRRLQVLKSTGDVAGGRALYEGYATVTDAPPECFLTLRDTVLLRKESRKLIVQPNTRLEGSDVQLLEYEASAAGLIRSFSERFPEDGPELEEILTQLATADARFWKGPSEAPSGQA
Description: as §1, §2

[9] = target: dipeptidylcarboxypeptidase (Homo sapiens, UniProt P12821); test: Inhibition of dipeptidylcarboxypeptidase of human cerebrospinal fluid; conditions: dialyzed human cerebrospinal fluid; 2 mg/ml
Sequence of dipeptidylcarboxypeptidase (P12821 30-1232): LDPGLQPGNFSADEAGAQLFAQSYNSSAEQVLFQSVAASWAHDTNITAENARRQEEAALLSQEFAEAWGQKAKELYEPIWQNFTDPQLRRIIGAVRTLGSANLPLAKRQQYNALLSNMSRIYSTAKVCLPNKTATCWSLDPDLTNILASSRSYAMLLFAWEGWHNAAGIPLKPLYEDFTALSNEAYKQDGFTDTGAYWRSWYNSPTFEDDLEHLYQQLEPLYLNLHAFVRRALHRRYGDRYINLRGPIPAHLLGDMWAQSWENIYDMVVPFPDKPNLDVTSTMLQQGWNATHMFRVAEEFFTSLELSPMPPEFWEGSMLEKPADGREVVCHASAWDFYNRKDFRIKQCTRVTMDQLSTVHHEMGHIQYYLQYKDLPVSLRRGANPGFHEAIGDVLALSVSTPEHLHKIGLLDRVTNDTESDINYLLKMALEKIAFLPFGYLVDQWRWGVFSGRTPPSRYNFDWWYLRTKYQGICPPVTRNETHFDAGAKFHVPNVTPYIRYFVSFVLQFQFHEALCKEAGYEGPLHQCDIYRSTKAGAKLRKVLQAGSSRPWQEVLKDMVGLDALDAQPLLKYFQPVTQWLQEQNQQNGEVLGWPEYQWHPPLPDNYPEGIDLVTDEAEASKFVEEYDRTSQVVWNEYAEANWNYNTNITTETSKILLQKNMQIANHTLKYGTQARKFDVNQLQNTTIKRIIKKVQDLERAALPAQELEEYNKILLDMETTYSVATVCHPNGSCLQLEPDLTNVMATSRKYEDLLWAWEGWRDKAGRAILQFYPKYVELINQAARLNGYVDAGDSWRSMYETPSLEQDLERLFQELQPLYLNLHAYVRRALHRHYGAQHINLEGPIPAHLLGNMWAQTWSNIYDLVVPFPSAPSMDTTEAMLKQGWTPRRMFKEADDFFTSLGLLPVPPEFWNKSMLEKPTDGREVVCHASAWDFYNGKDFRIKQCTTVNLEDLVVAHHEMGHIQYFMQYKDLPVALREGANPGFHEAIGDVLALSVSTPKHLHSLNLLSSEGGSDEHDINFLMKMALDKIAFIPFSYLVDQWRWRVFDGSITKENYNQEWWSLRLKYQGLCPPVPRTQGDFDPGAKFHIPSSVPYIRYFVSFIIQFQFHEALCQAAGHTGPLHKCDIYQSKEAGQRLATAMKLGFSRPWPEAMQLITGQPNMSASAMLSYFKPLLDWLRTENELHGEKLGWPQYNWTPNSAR
Description: as §1, §2

Aminopeptidase [10] = test: Inhibition of aminopeptidase from bovine longitudinal muscle (substrate enkephalin); conditions: for IC50: aminopeptidase; for inhibition rate, Aminopeptidase: principal ingredient 1 μg/1 ml
Excerpt: as §3, §4, §5

carboxypeptidase [11] = test: Inhibition of carboxypeptidase of human cerebrospinal fluid; conditions: dialyzed human cerebrospinal fluid; 2 mg/ml
Description: as §1, §2

Compound `N=C(N)NCCCC(N)C(=O)CC(Cc1ccccc1)C(=O)O` (stereo not drawn) [Arphamenine A, reference compound] has an IC50 (aminopeptidase [1]) of 810 μg/m.
`N=C(N)NCCCC(N)C(=O)CC(Cc1ccc(O)cc1)C(=O)O` (stereo not drawn) [Arphamenine B, reference compound] gave an IC50 (aminopeptidase [1]) of 650 μg/m.
`O=C(O)C[CH2][Ge](=[S])[S][Ge](=[S])[CH2]CC(=O)O` [Compound (1)] was tested, and the “inhibition rate, Aminopeptidase” value (Aminopeptidase [2]) was 87.8% and the “inhibition rate, Dipeptidylaminopeptidase” value (Dipeptidylaminopeptidase [3]) was 98.2%.
With `C[CH](CC(=O)O)[Ge](=[S])[S][Ge](=[S])[CH](C)CC(=O)O` (stereo not drawn) [Compound (2)] the “inhibition rate, Aminopeptidase” value (Aminopeptidase [2]) was 87.6%, the IC50 [4] was 168 µM and the IC50 [5] was 159 µM. For the same compound, the IC50 [6] was 78 µg/mL, the “inhibition rate, Carboxypeptidase” value (Carboxypeptidase [7]) was 6.2% and the “inhibition rate, Dipeptidylaminopeptidase” value (Dipeptidylaminopeptidase [3]) was 97.9%.
For `CC([CH2][Ge](=[S])[S][Ge](=[S])[CH2]C(C)C(=O)O)C(=O)O` (stereo not drawn) [Compound (3)], the “inhibition rate, Aminopeptidase” value (Aminopeptidase [2]) was 85.6%, the IC50 (aminopeptidase [1]) was 450 μg/m and the “inhibition effect on aminopeptidase” value (aminopeptidase [1]) was “exhibited inhibition effects”. The “inhibition effect on dipeptidylaminopeptidase” value (dipeptidylaminopeptidase [8]) was “exhibited inhibition effects”, the “inhibition effect on dipeptidylcarboxypeptidase” value [9] was “exhibited inhibition effects” and the “inhibition rate, Dipeptidylaminopeptidase” value (Dipeptidylaminopeptidase [3]) was 97.7%.
`C[C](C)(CC(=O)O)[Ge](=[S])[S][Ge](=[S])[C](C)(C)CC(=O)O` [Compound (5)] was tested, and the IC50 (Aminopeptidase [10]) was 110 µg/mL and the “inhibition rate, Aminopeptidase” value (Aminopeptidase [10]) was 88.0%.
In the case of `O=C(O)C[CH](c1ccccc1)[Ge](=[S])[S][Ge](=[S])[CH](CC(=O)O)c1ccccc1` (stereo not drawn) [Compound (6)], the IC50 (Aminopeptidase [10]) is reported as 19 µg/mL, the “inhibition rate, Aminopeptidase” value (Aminopeptidase [10]) is reported as 97.0% and the IC50 [5] is reported as 185 µM. The “inhibition effect on carboxypeptidase” value (carboxypeptidase [11]) was “exhibited inhibition effects”, the IC50 (aminopeptidase [1]) was 440 μg/m and the “inhibition effect on aminopeptidase” value (aminopeptidase [1]) was “exhibited inhibition effects”. For the same compound, the “inhibition effect on dipeptidylcarboxypeptidase” value [9] was “exhibited inhibition effects”, the IC50 (Carboxypeptidase [7]; carboxypeptidase) was 275 µg/mL and the “inhibition rate, Carboxypeptidase” value (Carboxypeptidase [7]) was 89.8%.
